We go through three compounds from US20200087625A1, “METHODS FOR ISOLATING, EXPANDING AND ADMINISTERING CANCER SPECIFIC CD8+ T CELLS” (priority 2017, published 2020).

The nature of series [1]: Serum cytokine analysis (Luminex) after systemic administration. The following applies: mouse, in vivo. The format is in vivo, BALB/c mice. On the procedure: FIG. 36. […] BALB/c mice (n=5) were i.p. administered IV270 (200 μg=185 nmol/injection) or […] (58 μg=185 nmol/injection) and sera were collected 2, 4, 6, and 24 hours following the administration. The levels of TNFα, IL-12, and IP-IO were measured by Luminex assay. *P<0.05, **P<0.01 by two way ANOVA using a Bonferroni post hoc test comparing treatment groups.
The sera were collected from mice receiving […] of 1V136, 1V270 or vehicle 2, 4, 6, and 24 hours after i.p. administration (15). Cytokine levels in sera were determined by Luminex bead assays (MILLIPLEX™ MAP kit, Millip ore, Billerica, Mass.).

The test system of another series is metastatic lung tumors. The following applies: intratracheal administration; cited from earlier work.
A further series deals with dermatological tumors. The following applies: cited from earlier work.

`COCCOc1nc(N)c2[nH]c(=O)n(Cc3ccccc3)c2n1` [1V136, reference compound]: the systemic proinflammatory cytokines result in series [1] was “high levels of systemic proinflammatory cytokines”.
In the case of `CCCCNc1nc(N)c2[nH]c(=O)n(Cc3ccc(C)nc3)c2n1` [SM276001], the metastatic lung tumors entry in the series with metastatic lung tumors was “suppress metastatic lung tumors”.
As to `CC(C)Cn1cnc2c(N)nc3ccccc3c21` [imiquimod], in the series with dermatological tumors (patients with basal cell carcinoma and actinic keratosis, topical), the clinical efficacy entry is on record as “favorable clinical efficacy”. Besides, in the series with dermatological tumors (systemic administration), the “toxicity on systemic administration” value was “immunotoxicity induced by systemic administration”.
